Assays:
[1] = Solubility of olaparib in glycerolipids with and without digestion enhancers; type: physicochemical; details: 55 mg in 1 g of only MAISINE CC, only GELUCIRE 43/01, or their admixture, 130° C., stirred at least 60 minutes
[2] = Miscibility / self-emulsification test modelling ICH dissolution testing; type: physicochemical; details: 1 g of 100% or 75% preparation in 1 L PBS with […] curcumin, 37° C., stirring 300 rpm 10 min, then 10 min without stirring
Procedure: To assess whether oleic acid could self-emulsify at the concentrations used in the disclosed pharmaceutical compositions, experiments was performed that were designed to model dissolution testing according to International Council for Harmonisation (ICH) guidelines. […] Miscibility experiments were performed using two concentrations of oleic acid nominally above the CMC concentration for this fatty acid. In one series of experiments, 1 g of 100% oleic acid was added to the dissolution media. The control compound was 1 g of 100% MAISINE™ CC. In a second series of experiments 1 g of 75% oleic acid (diluted with 250 mg of MAISINE™ CC) was added to the dissolution media. The control compound was 1 g of 75% MAISINE™ CC. The miscibility of oleic acid and MAISINE™ CC was assessed by observing the dissolution media for 10 minutes with constant stirring and then 10 minutes without stirring. Photographs were taken at time 0, 1, 2, 3, 4, 5 and 10 minutes during the stirring phase and 2, 4 and 10 minutes after stirring ceased.

Row | solubility of olaparib in glycerolipids without digestion enhancers [1] | miscibility in dissolution media [2] | SMILES
1 | remained insoluble | – | O=C(c1cc(Cc2n[nH]c(=O)c3ccccc23)ccc1F)N1CCN(C(=O)C2CC2)CC1 [olaparib]
2 | – | not miscible | CCCCCCCC/C=C\CCCCCCCC(=O)O [oleic acid]
